Data on nine compounds can be found in patent US6022307A, “Substituted dibenzothiophenes having antiangiogenic activity” (American Cyanamid Company, priority 1999, dated 2000).

Counter-ions that a name gives are not always drawn. Like-named read-outs stand apart in the source and are kept apart here.

In data set [1] the test system is Human Epidermoid Tumors (A431). Type of data set: in vivo, human tumor in BALB/c nu/nu female mice. The protocol:
In Vivo Inhibition of Growth of Human Epidermoid Tumors (A431)
In vivo testing was performed using BALB/c nu/nu female mice (Charles River, Wilmington, Mass.). The human epidermoid carcinoma cells A-431 (American Type Culture Collection, Rockville, Md. # CRL-155) were grown in vitro and 5×10^6 cells were injected subcutaneously (SC) into mice. When tumors attained a mass of between 100 and 150 mg, the mice were randomized into treatment groups (Day Zero). Mice were treated either intraperitoneally (IP) or orally (PO) once a day on days 1 through 20 post staging with doses of either 100 or 50 mg/kg/dose in 0.2% Klucel. Tumor mass was determined every 7 days [(length×width^2)/2] for up to 42 days post staging. Relative tumor growth (mean tumor mass on day 7, 14, 21, 28, 35 and 42 divided by the mean tumor mass on day zero) was determined for each treatment group. The %T/C (Tumor/Control) was determined by dividing the relative tumor growth of the treated group by the relative tumor growth of the placebo group and multiplying by 100. Data was statistically analyzed via Student-t-test of Log Relative Tumor Growth. A p-value (p≤0.05) indicates a statistically significant reduction in Relative Tumor Growth of Treated Group, compared to Placebo Control. A compound is considered to be active if the %T/C is found to be <60% and a p-value of less than or equal to 0.05 is achieved.

Data set [2] deals with VEGF 165-induced vascular permeability. Nature of the data set: Inhibition of Vascular Permeability Assay (Miles Assay). Type of data set: in vivo, BALB/c female mice. The settings on record: 100 mg/kg, PO. On the procedure: Inhibition of Vascular Permeability Assay (Miles Assay) This assay was performed using BALB/c female mice (Charles River, Wilmington, Mass.). Both sides of the animals were shaved between 24 and 48 hours before the start of the assay. There were 10 animals per experimental group. […] One half hour later the animals were sacrificed by CO2 inhalation. […] Data was statistically analyzed via Student-t-test. A p-value (p≤0.05) indicates a statistically significant difference between the area of vascular permeability of the vehicle control verses the experimental group. Data was statistically analyzed via Student-t-test of Log Relative Area of Permiability. A p-value (p≤0.05) indicates a statistically significant reduction in permeability of Treated Group, compared to Placebo Control.

Data set [3] concerns KDR.
Method: (§1) Inhibition of Binding of VEGF 165 to KDR & Flt-1 Receptors as Measured by SPA Assay
(§2) Preparation of conditioned media containing the KDR-Fc soluble VEGF receptor.:
(§3) Human 293KDR2 cells, which secrete a soluble KDR-Fc fusion protein, were grown in Dulbecco's Modified Eagle Medium supplemented with 10% fetal calf serum, 2 mM glutamine, 10 units/ml penicillin G sulfate, 10 μg/ml streptomycin sulfate and 175 μg/ml geneticin (G418) sulfate. Cells were plated at a density of 10^6 cells/100 mm dish and incubated at 37° C. in a humidified atmosphere containing 95% air and 5% CO2. After 10 days, conditioned medium was collected and centrifuged at 15,000 rpm for 15 min to remove dead cells. A total of 0.1 volume of 1.15% gelatin and 0.02 volume of 1M HEPES buffer (pH 8) was added. Leupeptin and pepstatin A were added to 1 μg/ml each.
(§4) Preparation of ^125 I-labelled VEGF ligand:
(§5) Recombinant human ^125 T-labelled VEGF 165 was purchased from Amersham (3,800 cpm/fmol). ^125,-labelled VEGF was diluted in DMEM supplemented with gelatin (0.15%) and HEPES buffer (20 mM) to a final concentration of 40,000 cpm/25 μl.
Preparation of SPA beads:
(§6) SPA PVT antibody-binding beads were purchased from Amersham. Each bottle of SPA beads (500 mg) was reconstituted in 25 ml of DMEM supplemented with gelatin (0.15%) and HEPES buffer (20 mM). The bottle contents were well mixed (15 min with a stir bar at room temperature).
(§7) SPA assays were performed in flat-bottom polystyrene 96 well microtitre plates.
(a) Pipette 50 μl of SPA beads to well.
(§8) (b) Pipette 25 μl of conditioned medium to well.
(§9) (d) Pipette 25 μl of ^125 J-VEGF 165 to well.
(§10) The appropriate control wells were set up to measure non-specific binding, solvent effect, etc. The assays were run in duplicate or triplicate wells. Plates were sealed and incubate at room temperature without shaking for 5 to 20 hours. Plates were then counted in a Packard TopCount microtitre plate liquid scintillation counter.
(§11) A typical assay gave 3,000 to 6,000 cpm bound. Background binding (measured in the presence of 100-fold molar excess of unlabelled VEGF 165) was typically 200 to 300 cpm bound. Compounds were tested at 30, 10, 3, 1, 0.3 and 0.1 μg/ml in DMSO. […] Half maximal binding was determined by the following equation:
(§12) s=maximal cpm bound in the absence of compound.
(§13) The IC50 values were determined graphically by the following procedure:
(§14) A graph was drawn plotting compound concentration (x-axis) versus cpm bound (y-axis).
(§15) The half maximal binding was calculated using the equation above.
(§16) A horizontal line (LINE A) was drawn which intersects the y-axis at the half maximal binding value.
(§17) A vertical line (LINE B) was drawn through the point where LINE A intersects the inhibition curve.
(§18) The point where LINE B intersects the x-axis was extrapolated from the graph to give the IC50 value.
Data set [4] deals with Human Epidermoid Tumors (A431). It is filed as in vivo, human tumor in BALB/c nu/nu female mice. The conditions noted are these: 100 mg/kg, PO.
Data set [5] deals with corneal neovascularization. Nature of the data set: Corneal Neovascularization Model. Type of data set: in vivo, mice. The settings on record: 100 mg/kg, PO, days 1-10. On the procedure: Corneal Neovascularization Model
The sustained release preparations of angiogenic agents (ELVAX pellet) were prepared by solvent casting. […] The solvent was then evaporated, leaving the angiogenic agent in the polymeric matrix
Mice were anesthetized using a 1-1.5 ml/kg solution containing a mixture of 70% ketamine hydrochloride (100 mg/ml) and 30% xylazine (20 mg/ml). Using sterile surgical technique, an ELVAX pellet containing either basic FGF (100 ng) or VEGF (400 ng) was implanted into a previously dissected intrastromal corneal pocket 0.5 mm from the corneoscleral limbus. Following implantation the implantation site margins were reapposed and the eyes were treated with topical antibiotic ointment (bacitracin/neomycin/polymixin). On various days (between postoperative days 4 and 18) the extent of neovascularization was measured.
Neovascularization was monitored by measurements of new vessel growth within the previously avascular cornea. This parameter was obtained by measuring with calipers under microscopic magnification the length of the base of the neovascular bed at the limbus. The area of neovascularization,which is typically triangular, was calculated by dividing the product of the length of the vessel and the base length by two. Data was statistically analyzed via Student-t-test of Log Relative Reduction of Neovascularization. A p-value (p≤0.05) indicates a statistically significant reduction in neovascularization of Treated Group, compared to Placebo Control.

In data set [6] the target is KDR. The experiment in a line: Inhibition of Binding of VEGF 165 to KDR Receptor as Measured by SPA Assay. The settings on record: read-out: affinity constant for VEGF binding to the soluble KDR-Fc receptor.
Target sequence in this assay (P35968 20-327 limits assumed): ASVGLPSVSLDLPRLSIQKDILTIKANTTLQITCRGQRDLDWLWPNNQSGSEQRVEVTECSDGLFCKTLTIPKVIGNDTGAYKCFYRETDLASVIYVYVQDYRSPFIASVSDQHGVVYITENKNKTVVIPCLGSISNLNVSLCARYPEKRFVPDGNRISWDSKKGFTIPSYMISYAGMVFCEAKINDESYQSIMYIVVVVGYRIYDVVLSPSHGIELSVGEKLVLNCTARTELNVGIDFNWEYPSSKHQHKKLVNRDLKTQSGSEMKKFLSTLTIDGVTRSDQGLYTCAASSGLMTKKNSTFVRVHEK
Method: as §1, §2, §3, §4, §5
Preparation of SPA beads:
as §6, §7
(a) Pipette 50 μl of SPA beads to well.
as §8, §9, §10, §11, §12, §13, §14, §15, §16, §17, §18

As for `O=C(Nc1cc2c(cc1S(=O)(=O)O)-c1cc(S(=O)(=O)O)c(NC(=O)c3ccc4c(c3)C(=O)c3ccccc3C4=O)cc1S2(=O)=O)c1ccc2c(c1)C(=O)c1ccccc1C2=O` [Example 55, 3,7-Bis-[9,10-dihydro-9,10-dioxoanthracen-2-yl)carbonyl-amino]-5,5-dioxo-5H-5^6-dibenzothiophene-2,8-disulfonic acid, disodium salt], the “% T/C (Day)” value in data set [1] (50 mg/kg, PO, day 28) is 44%. In addition, in data set [2] (1 hr prior to VEGF), the “% Control” value turned out to be 77% and the “Lesion Area (measured area of vascular permeability)” value (from here on “Lesion Area”) was found to be 71.6 mm^2. In data set [2] (4 hr prior to VEGF), the “% Control” value is 74% and the “Lesion Area” value is 70.5 mm^2. Also, the IC50 (in general, the midpoint of a concentration-inhibition curve) in data set [3] is 1 µg/mL.

With `CCCc1c(C(=O)Nc2cc3c(cc2S(=O)(=O)O)-c2cc(S(=O)(=O)O)c(NC(=O)c4cnn(-c5ccc(Cl)cc5)c4CCC)cc2S3(=O)=O)cnn1-c1ccc(Cl)cc1` [Example 45, 3,7-Bis-{[1-(4-chlorophenyl)-5-propyl-1H-pyrazole-4-carbonyl]amino}5,5-dioxo-5H-5^6-dibenzothiophene-2,8-disulfonic acid, disodium salt], the “% T/C (Day)” value in data set [1] (50 mg/kg, IP, day 28) is listed as 50%. In data set [3], the half-maximal inhibitory concentration (IC50) turned out to be 2 µg/mL.

On to `O=C(Nc1cc2sc3cc(NC(=O)c4cc5c(s4)-c4cc(Cl)ccc4SC5)c(C(=O)O)cc3c2cc1C(=O)O)c1cc2c(s1)-c1cc(Cl)ccc1SC2` [Example 6, 3,7-Bis[(8-chloro-4H-thieno[3,2-c][1]benzothiopyran-2-carbonyl)-amino]dibenzothio-phene-2,8-dicarboxylic acid, disodium], for which the IC50 in data set [3] was found to be 0.5 µg/mL. Moreover, the “% T/C (Day)” value in data set [4] (day 15) is 52%.

Consider `COc1ccc(/C=C/C(=O)Nc2cc3c(cc2S(=O)(=O)O)-c2cc(S(=O)(=O)O)c(NC(=O)/C=C/c4ccc(OC)cc4)cc2S3(=O)=O)cc1` [Example 30, 3,7-Bis-[3-(4-methoxyphenyl)-acryloylamino]-5,5-dioxo-5H-5^6-dibenzothiophene-2,8-disulfonic acid, disodium salt], for which the “% T/C (Day)” value in data set [1] (50 mg/kg, PO, day 28) worked out at 58%; in data set [1] (100 mg/kg, PO, day 42), 56%. Also, the “% Control” value in data set [2] (4 hr prior to VEGF) is 56%. For the same compound, the “Lesion Area” value in data set [2] (4 hr prior to VEGF) came out at 52.9 mm^2. This compound showed an IC50 in data set [3] of 0.5 µg/mL.

Consider `COc1ccc(/C=C/C(=O)Nc2cc3c(cc2S(=O)(=O)O)-c2cc(S(=O)(=O)O)c(NC(=O)/C=C/c4ccc(OC)c(OC)c4Cl)cc2S3(=O)=O)c(Cl)c1OC` [Example 27, 3,7-Bis[3-(2-chloro-3,4-di-methoxyphenyl)-acryloylamino]-5,5-dioxo-5H-5^6-dibenzothiophene-2,8-disulfonic acid, disodium salt], for which the “% T/C (Day)” value in data set [1] (50 mg/kg, PO, day 28) was 51%. For the same compound, the “% T/C (Day)” value in data set [1] (100 mg/kg, PO, day 28) came to 30%. For the same compound, in data set [2] (4 hr prior to VEGF), the “% Control” value is recorded as 73% and the “Lesion Area” value was found to be 58.5 mm^2. This compound had an IC50 in data set [3] of 2.33 µg/mL.

Consider `CCOP(=O)(O)c1cc2c(cc1NC(=O)/C=C/c1ccc(OC)cc1)S(=O)(=O)c1cc(NC(=O)/C=C/c3ccc(OC)cc3)c(P(=O)(O)OCC)cc1-2` [Example 20, [3,7-Bis-[4-methoxyphenyl]-acryloylamino]-8-(ethoxyhydroxy-phosphoryl)-5,5-dioxo-5H-5^6-dibenzothiophen-2-yl]-phosphonic acid monoethyl ester, disodium salt], for which, in data set [1] (100 mg/kg, PO, Day +28 post tumor staging), the “S/T (No. Survivors/No. Treated)” value is given as 5/5. Besides, the “Inhibition of Corneal Neovascularization” value is 29% in data set [5] (Day 4), 25% in data set [5] (Day 8), 30% in data set [5] (Day 11) and 26% in data set [5] (Day 13). In data set [3], this compound displayed an IC50 of 3.9 µg/mL. Moreover, the “% T/C (Day)” value in data set [4] (day 29) came out at 39%.

Take `CCOP(=O)(O)c1cc2c(cc1NC(=O)c1cc3ccccc3s1)S(=O)(=O)c1cc(NC(=O)c3cc4ccccc4s3)c(P(=O)(O)OCC)cc1-2` [Example 23a, [3,7-Bis[(benzo[b]thiophene-2-carbonyl)amino-8-(ethoxyhydroxyphosphoryl)-5,5-dioxo-5H-5λ^6-dibenzothiophen-2-yl]phosphonic acid monoethyl ester, disodium salt]: the “Inhibition of Corneal Neovascularization” value in data set [5] (Day 4) came to 70%; in data set [5] (Day 8), 55%; in data set [5] (Day 11), 46%; in data set [5] (Day 13), 50%. The same compound gave an IC50 in data set [3] of 1.65 µg/mL.

With VEGF, the Kd in data set [6] was roughly 0.1 nM.

`O=C(Nc1cc2c(cc1S(=O)(=O)O)-c1cc(S(=O)(=O)O)c(NC(=O)c3ccc4cc5ccccc5cc4c3)cc1S2(=O)=O)c1ccc2cc3ccccc3cc2c1` [Example 54, 3,7-Bis-(anthracen-2-ylcarbonylamino)-5,5-dioxo-5H-5^6-dibenzothiophene-2,8-disulfonic acid, disodium salt]: the “% T/C (Day)” value came to 46% in data set [1] (50 mg/kg, IP, day 28) and 38% in data set [1] (50 mg/kg, PO, day 28). In addition, the IC50 in data set [3] was 0.15 µg/mL.
